Biological target: T1, JAK1 (Homo sapiens, UniProt P23458)
T1 construct: purchased Invitrogen PV4775
Test: Inhibition of JAK1 kinase, LANCE Ultra TR-FRET assay
Assay type: biochemical
Settings: 2 nM JAK1, 2x ATP 76 μM, 15 min pre-incubation, 90 min reaction, 23° C.
Procedure: (§1) Exemplary compounds were assayed to determine potency in inhibiting activity of JAK1-3 and TYK2 kinases by determining IC50 values.
(§2) The sources of test materials and equipment are as follows: JAK1 (Invitrogen, Cat. No PV4775), JAK2 (Invitrogen, Cat. No PV4210), JAK3 (Invitrogen, Cat. No PV4080), TYK2 (Invitrogen, Cat. No PR8440C), ATP (Sigma, Cat. No. A7699-1G), DMSO (Sigma, Cat. No. D2650), DTT (Sigma, Cat. No. 43815), 384 wells_compound plate (Greiner, Cat. No. 781280), 384 wells_assay plate (Perkin Elmer, Cat. No. 6007299), LANCE Ultra ULight™-JAK-1 peptide (Perkin Elmer, Cat. No. TRF0121), LANCET™ Eu-W1024 Anti-phosphotyrosine (PT66) (Perkin Elmer, Cat. No. AD0069), LANCET™ Detection Buffer(Perkin Elmer, Cat. No. CR97-100).
(§3) The concentrations of test compounds varied from 100 μM to 1.7 nM with 3-fold dilution, 11 points, in duplicates while the concentrations of the reference compound, Tofacitinib, varied from 1 μM to 0.017 nM with 3-fold dilution, 11 points, in duplicates.
(§4) The assay buffer contained 50 mM HEPES (pH 7.5), 0.01% Brij-35, 10 mM MgCl2, 1 mM EDTA, 2 mM DTT. Incubations were carried out at 23° C.
(§5) Prior to the assay, enzyme, peptide substrate and serially diluted test compounds were pre-incubated together in assay buffer (5 μL) for 15 minutes (peptide substrate concentration: 50 nM; JAK enzyme concentrations: 2 nM JAK1; […]; […] and 4 nM TYK2). And the assay was initiated by the addition of 5 μL assay buffer containing 2× final ATP concentration (these are the 2×ATP concentrations: 76 μM JAK1; 24 μM JAK2; 8 μM JAK3 and 30 μM TYK2). Following the 90-minute incubation, antibody conjugated with Eu is dissolved in detection buffer to add into wells and then incubated for 60 minutes. The 10 μL detection buffer contains EDTA to stop the enzymatic reaction. The plate is analyzed by Perkin Elmer Envision on TR-FRET mode. The high ratio of 665/615 represents no inhibition of kinase reaction while the low ratio of 665/615 represents complete inhibition of kinase reaction.
(§6) Curves are fit by XLFIT5 as inhibition rate % vs. log [compound concentration] using 4 parameters logistic model 205.
(§7) In the table, “A” indicates an IC50 of less than 100 nM, “B” indicates an IC50 range from 100 nM to 500 nM; “C” indicates an IC50 range from 500 nM to 2 μM; and “D” indicates an IC50 greater than 2 μM. Also, “na” indicates data is not available.

T1 sequence (P23458 whole entry): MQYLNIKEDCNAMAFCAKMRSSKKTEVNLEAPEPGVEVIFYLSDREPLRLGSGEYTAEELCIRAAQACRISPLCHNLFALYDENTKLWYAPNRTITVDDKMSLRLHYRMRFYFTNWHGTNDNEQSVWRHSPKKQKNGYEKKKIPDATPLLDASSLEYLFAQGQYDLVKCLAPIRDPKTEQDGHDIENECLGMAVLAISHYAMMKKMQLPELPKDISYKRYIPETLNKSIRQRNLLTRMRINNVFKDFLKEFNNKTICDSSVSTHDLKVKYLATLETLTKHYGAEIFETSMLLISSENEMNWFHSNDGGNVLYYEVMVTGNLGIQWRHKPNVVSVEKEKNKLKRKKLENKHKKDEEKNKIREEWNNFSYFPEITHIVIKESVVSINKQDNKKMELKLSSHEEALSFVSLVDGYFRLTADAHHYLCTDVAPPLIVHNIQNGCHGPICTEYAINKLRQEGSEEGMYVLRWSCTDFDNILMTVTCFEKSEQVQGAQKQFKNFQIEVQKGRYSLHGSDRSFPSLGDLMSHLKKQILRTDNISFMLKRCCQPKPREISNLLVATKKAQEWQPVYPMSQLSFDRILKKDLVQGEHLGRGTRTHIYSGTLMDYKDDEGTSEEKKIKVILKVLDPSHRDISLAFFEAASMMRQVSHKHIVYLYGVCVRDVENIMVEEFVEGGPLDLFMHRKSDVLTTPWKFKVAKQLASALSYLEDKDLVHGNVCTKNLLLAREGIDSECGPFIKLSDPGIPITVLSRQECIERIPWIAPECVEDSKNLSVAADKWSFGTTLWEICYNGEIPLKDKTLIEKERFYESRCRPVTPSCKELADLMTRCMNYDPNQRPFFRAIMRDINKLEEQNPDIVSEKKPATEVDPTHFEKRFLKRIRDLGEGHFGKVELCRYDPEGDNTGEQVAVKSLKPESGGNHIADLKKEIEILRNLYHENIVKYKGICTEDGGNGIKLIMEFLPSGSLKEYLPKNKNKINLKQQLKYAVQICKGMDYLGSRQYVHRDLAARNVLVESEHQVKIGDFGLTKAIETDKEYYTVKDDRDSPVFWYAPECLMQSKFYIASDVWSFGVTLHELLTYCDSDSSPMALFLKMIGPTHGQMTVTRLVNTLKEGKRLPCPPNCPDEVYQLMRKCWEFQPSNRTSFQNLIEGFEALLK

`O=C(NCCC1CC1)c1n[nH]c2c1CN(c1ncnc3[nH]ccc13)CC2` [Compound 138] and `O=C(NCCC1COC1)c1noc2c1CN(c1ncnc3[nH]ccc13)CC2` [Compound 146] fall in the same range of IC50: 100 to 500 nM for the first, 100 to 500 nM for the second.

First: Cc1cnc(CCNC(=O)c2noc3c2CN(c2ncnc4[nH]ccc24)CC3)o1 [Compound 139]
Second: O=C(NCCC1(F)COC1)c1noc2c1CN(c1ncnc3[nH]ccc13)CC2 [Compound 147]
The IC50 of the first is higher: > 2000 nM for the first, 100 to 500 nM for the second. The second is the more potent here.

First: O=C(NCCC(F)(F)F)c1nsc2c1CN(c1ncnc3[nH]ccc13)CC2 [Compound 141]
Second: O=C(NCCCC1(O)CC1)c1noc2c1CN(c1ncnc3[nH]ccc13)CC2 [Compound 144]
The IC50 of the first is lower: < 100 nM for the first, 100 to 500 nM for the second. The first is the more potent here.

With `O=C(NCCCC1(O)CC1)c1noc2c1CN(c1ncnc3[nH]ccc13)CC2` [Compound 145] the IC50 was 100 to 500 nM.

Biological target: T2, TYK2 (Homo sapiens, UniProt P29597)
T2 construct: purchased Invitrogen PR8440C
T2 sequence (P29597 whole entry): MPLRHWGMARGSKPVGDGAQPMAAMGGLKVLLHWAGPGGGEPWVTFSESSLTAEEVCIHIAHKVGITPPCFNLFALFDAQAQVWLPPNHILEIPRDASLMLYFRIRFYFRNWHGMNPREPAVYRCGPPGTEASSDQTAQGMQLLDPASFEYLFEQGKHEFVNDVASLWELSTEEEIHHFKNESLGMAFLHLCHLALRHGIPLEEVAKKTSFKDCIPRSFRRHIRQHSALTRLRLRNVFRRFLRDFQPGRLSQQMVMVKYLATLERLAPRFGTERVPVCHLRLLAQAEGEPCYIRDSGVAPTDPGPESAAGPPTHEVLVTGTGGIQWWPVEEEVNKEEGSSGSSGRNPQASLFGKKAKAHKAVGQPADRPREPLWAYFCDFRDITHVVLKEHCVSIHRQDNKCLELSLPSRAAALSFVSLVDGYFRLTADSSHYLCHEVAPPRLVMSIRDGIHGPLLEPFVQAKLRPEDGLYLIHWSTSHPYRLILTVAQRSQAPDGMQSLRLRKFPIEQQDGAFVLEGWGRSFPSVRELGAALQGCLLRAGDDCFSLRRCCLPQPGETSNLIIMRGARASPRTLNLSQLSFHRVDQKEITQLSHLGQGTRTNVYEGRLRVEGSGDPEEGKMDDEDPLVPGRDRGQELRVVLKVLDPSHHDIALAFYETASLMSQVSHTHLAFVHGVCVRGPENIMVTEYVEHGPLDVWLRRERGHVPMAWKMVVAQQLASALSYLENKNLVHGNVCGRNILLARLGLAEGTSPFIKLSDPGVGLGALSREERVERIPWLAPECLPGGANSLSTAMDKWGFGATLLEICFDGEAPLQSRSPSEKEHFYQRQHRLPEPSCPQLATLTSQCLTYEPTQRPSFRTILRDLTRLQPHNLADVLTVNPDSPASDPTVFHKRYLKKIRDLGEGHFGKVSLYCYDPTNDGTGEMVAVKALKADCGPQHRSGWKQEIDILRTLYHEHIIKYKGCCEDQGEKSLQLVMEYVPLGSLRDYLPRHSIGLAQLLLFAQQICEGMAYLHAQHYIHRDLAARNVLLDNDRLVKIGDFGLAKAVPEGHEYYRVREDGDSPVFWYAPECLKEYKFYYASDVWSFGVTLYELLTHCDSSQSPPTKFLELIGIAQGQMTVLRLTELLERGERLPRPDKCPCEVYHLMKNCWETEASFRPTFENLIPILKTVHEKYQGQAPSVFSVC
Test: Inhibition of TYK2 kinase, LANCE Ultra TR-FRET assay
Assay type: biochemical
Settings: 4 nM TYK2, 2x ATP 30 μM, 15 min pre-incubation, 90 min reaction, 23° C., read-out: tyk IC50
Procedure: as §1, §2, §3, §4, §5, §6, §7

First: O=C(NCCC1CC1)c1n[nH]c2c1CN(c1ncnc3[nH]ccc13)CC2 [Compound 138]
Second: O=C(NCCC1COC1)c1noc2c1CN(c1ncnc3[nH]ccc13)CC2 [Compound 146]
The IC50 of the first is lower: 500 to 2000 nM for the first, > 2000 nM for the second.

`Cc1cnc(CCNC(=O)c2noc3c2CN(c2ncnc4[nH]ccc24)CC3)o1` [Compound 139] and `O=C(NCCC1(F)COC1)c1noc2c1CN(c1ncnc3[nH]ccc13)CC2` [Compound 147] cannot be ordered by IC50: > 2000 nM for the first, > 2000 nM for the second.

First: O=C(NCCC(F)(F)F)c1nsc2c1CN(c1ncnc3[nH]ccc13)CC2 [Compound 141]
Second: O=C(NCCCC1(O)CC1)c1noc2c1CN(c1ncnc3[nH]ccc13)CC2 [Compound 144]
The IC50 of the first is lower: 100 to 500 nM for the first, > 2000 nM for the second. The first is the more potent here.

In the case of `O=C(NCCCC1(O)CC1)c1noc2c1CN(c1ncnc3[nH]ccc13)CC2` [Compound 145], the IC50 is reported as > 2000 nM.

Biological target: T3, JAK2 (Homo sapiens, UniProt O60674)
T3 construct: purchased Invitrogen PV4210
T3 sequence (O60674 whole entry): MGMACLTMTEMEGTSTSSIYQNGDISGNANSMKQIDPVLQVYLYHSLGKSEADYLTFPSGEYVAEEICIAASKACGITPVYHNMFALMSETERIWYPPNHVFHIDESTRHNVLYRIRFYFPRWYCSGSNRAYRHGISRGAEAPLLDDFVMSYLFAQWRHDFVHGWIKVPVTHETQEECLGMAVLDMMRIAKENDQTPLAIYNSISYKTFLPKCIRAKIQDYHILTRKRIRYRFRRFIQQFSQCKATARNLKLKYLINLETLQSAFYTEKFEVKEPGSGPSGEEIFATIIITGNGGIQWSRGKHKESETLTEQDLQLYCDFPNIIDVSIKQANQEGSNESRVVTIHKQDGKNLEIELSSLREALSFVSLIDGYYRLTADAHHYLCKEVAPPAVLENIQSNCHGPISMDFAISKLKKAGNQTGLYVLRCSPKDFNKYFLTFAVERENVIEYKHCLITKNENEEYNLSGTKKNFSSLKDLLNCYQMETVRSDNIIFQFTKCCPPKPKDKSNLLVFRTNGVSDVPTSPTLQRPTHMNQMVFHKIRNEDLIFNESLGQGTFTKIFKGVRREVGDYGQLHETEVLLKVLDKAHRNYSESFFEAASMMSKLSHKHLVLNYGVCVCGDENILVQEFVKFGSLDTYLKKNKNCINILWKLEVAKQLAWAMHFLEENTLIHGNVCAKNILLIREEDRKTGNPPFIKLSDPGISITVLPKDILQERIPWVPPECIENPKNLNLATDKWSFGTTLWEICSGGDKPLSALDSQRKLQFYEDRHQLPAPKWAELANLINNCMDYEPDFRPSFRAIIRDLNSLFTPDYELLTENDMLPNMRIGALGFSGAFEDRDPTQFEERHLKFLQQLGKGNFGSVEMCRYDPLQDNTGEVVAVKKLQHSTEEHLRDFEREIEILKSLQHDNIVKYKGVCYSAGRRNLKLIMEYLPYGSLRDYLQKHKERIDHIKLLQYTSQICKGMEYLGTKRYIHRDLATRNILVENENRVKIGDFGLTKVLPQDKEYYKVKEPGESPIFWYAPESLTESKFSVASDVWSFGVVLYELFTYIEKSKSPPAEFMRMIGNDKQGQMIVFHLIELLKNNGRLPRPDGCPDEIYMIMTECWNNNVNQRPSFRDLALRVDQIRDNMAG
Test: Inhibition of JAK2 kinase, LANCE Ultra TR-FRET assay
Assay type: biochemical
Settings: 2x ATP 24 μM, 15 min pre-incubation, 90 min reaction, 23° C.
Procedure: as §1, §2, §3, §4, §5, §6, §7

First: O=C(NCCC1CC1)c1n[nH]c2c1CN(c1ncnc3[nH]ccc13)CC2 [Compound 138]
Second: O=C(NCCC1COC1)c1noc2c1CN(c1ncnc3[nH]ccc13)CC2 [Compound 146]
The IC50 of the first is lower: 100 to 500 nM for the first, 500 to 2000 nM for the second. The first is the more potent here.

Compared with `Cc1cnc(CCNC(=O)c2noc3c2CN(c2ncnc4[nH]ccc24)CC3)o1` [Compound 139], `O=C(NCCC1(F)COC1)c1noc2c1CN(c1ncnc3[nH]ccc13)CC2` [Compound 147] is lower in IC50: > 2000 nM for the first, 100 to 500 nM for the second.

First: O=C(NCCC(F)(F)F)c1nsc2c1CN(c1ncnc3[nH]ccc13)CC2 [Compound 141]
Second: O=C(NCCCC1(O)CC1)c1noc2c1CN(c1ncnc3[nH]ccc13)CC2 [Compound 144]
The IC50 of the first is lower: < 100 nM for the first, 100 to 500 nM for the second. The first is the more potent here.

Compound `O=C(NCCCC1(O)CC1)c1noc2c1CN(c1ncnc3[nH]ccc13)CC2` [Compound 145] has an IC50 of 500 to 2000 nM.

Biological target: T4, JAK3 (Homo sapiens, UniProt P52333)
T4 construct: purchased Invitrogen PV4080
T4 sequence (P52333 1-1124): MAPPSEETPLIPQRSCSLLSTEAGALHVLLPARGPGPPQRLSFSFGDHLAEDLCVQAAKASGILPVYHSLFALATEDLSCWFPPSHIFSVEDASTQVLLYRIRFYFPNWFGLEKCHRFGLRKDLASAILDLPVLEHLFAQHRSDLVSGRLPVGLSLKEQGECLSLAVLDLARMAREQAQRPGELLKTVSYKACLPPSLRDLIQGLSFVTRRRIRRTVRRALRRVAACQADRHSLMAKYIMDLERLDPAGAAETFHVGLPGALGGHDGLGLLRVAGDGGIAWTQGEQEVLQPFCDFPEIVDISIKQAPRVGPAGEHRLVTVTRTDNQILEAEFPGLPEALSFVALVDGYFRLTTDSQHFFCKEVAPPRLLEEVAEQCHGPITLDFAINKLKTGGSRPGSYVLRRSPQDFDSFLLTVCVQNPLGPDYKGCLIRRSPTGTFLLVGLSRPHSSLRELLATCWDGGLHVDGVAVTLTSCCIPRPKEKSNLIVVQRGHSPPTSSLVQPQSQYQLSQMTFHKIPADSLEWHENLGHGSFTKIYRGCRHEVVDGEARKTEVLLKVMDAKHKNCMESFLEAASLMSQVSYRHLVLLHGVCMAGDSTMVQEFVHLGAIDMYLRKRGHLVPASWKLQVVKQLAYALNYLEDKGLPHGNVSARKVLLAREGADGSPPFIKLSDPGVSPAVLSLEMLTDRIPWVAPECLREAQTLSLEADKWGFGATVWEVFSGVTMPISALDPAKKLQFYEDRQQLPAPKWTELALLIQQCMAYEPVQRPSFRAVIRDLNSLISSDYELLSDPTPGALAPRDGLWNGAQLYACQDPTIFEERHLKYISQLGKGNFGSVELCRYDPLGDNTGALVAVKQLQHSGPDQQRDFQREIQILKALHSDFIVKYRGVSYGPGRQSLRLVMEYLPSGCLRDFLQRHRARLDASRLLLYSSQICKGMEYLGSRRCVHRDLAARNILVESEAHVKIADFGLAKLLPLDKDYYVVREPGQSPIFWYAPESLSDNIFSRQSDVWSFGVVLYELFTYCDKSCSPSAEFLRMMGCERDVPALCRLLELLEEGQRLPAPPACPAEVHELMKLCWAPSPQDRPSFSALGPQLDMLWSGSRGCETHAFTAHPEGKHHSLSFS
Test: Inhibition of JAK3 kinase, LANCE Ultra TR-FRET assay
Assay type: biochemical
Settings: 2x ATP 8 μM, 15 min pre-incubation, 90 min reaction, 23° C.
Procedure: as §1, §2, §3, §4, §5, §6, §7

First: O=C(NCCC1CC1)c1n[nH]c2c1CN(c1ncnc3[nH]ccc13)CC2 [Compound 138]
Second: O=C(NCCC1COC1)c1noc2c1CN(c1ncnc3[nH]ccc13)CC2 [Compound 146]
The IC50 of the first is lower: < 100 nM for the first, 100 to 500 nM for the second. The first is the more potent here.

First: Cc1cnc(CCNC(=O)c2noc3c2CN(c2ncnc4[nH]ccc24)CC3)o1 [Compound 139]
Second: O=C(NCCC1(F)COC1)c1noc2c1CN(c1ncnc3[nH]ccc13)CC2 [Compound 147]
The IC50 of the first is higher: > 2000 nM for the first, 100 to 500 nM for the second.

`O=C(NCCC(F)(F)F)c1nsc2c1CN(c1ncnc3[nH]ccc13)CC2` [Compound 141] and `O=C(NCCCC1(O)CC1)c1noc2c1CN(c1ncnc3[nH]ccc13)CC2` [Compound 144] cannot be ordered by IC50: < 100 nM for the first, < 100 nM for the second.

In the case of `O=C(NCCCC1(O)CC1)c1noc2c1CN(c1ncnc3[nH]ccc13)CC2` [Compound 145], the IC50 is reported as 100 to 500 nM.
